Reference: PubChem BioAssay (NCI)
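Test compounds were applied to cells in 96-well plates for 48 hours at 5 doses. Abbreviation: GI50, concentration required for 50% inhibition of growth. TGI is the concentration that stops growth completely.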

How the values were obtained:
Assay in all cases: NCI tumour cell line growth inhibition, 48 h
786-0 renal = test system: 786-0 renal
A498 renal = test system: A498 renal
A549 NSCLC = test system: A549 NSCLC
ACHN renal = test system: ACHN renal
BT-549 breast = test system: BT-549 breast
CAKI-1 renal = test system: CAKI-1 renal
CCRF-CEM leukemia = test system: CCRF-CEM leukemia
COLO 205 colon = test system: COLO 205 colon
DU-145 prostate = test system: DU-145 prostate
EKVX NSCLC = test system: EKVX NSCLC
HCC-2998 colon = test system: HCC-2998 colon
HCT-116 colon = test system: HCT-116 colon
HCT-15 colon = test system: HCT-15 colon
HL-60(TB) leukemia = test system: HL-60(TB) leukemia
HOP-62 NSCLC = test system: HOP-62 NSCLC
HOP-92 NSCLC = test system: HOP-92 NSCLC
HS 578T breast = test system: HS 578T breast
HT29 colon = test system: HT29 colon
IGROV1 ovarian = test system: IGROV1 ovarian
K-562 leukemia = test system: K-562 leukemia
KM12 colon = test system: KM12 colon
LOX IMVI melanoma = test system: LOX IMVI melanoma
M14 melanoma = test system: M14 melanoma
MALME-3M melanoma = test system: MALME-3M melanoma
MDA-MB-231 breast = test system: MDA-MB-231 breast
MDA-MB-435 = test system: MDA-MB-435
MOLT-4 leukemia = test system: MOLT-4 leukemia
NCI-H226 lung = test system: NCI-H226 lung
NCI-H23 lung = test system: NCI-H23 lung
NCI-H460 lung = test system: NCI-H460 lung
NCI-H522 lung = test system: NCI-H522 lung
NCI/ADR-RES ovarian = test system: NCI/ADR-RES ovarian
OVCAR-3 ovarian = test system: OVCAR-3 ovarian
OVCAR-4 ovarian = test system: OVCAR-4 ovarian
OVCAR-5 ovarian = test system: OVCAR-5 ovarian
OVCAR-8 ovarian = test system: OVCAR-8 ovarian
PC-3 prostate = test system: PC-3 prostate
RPMI-8226 leukemia = test system: RPMI-8226 leukemia
RXF 393 renal = test system: RXF 393 renal
SF-268 CNS = test system: SF-268 CNS
SF-295 CNS = test system: SF-295 CNS
SF-539 CNS = test system: SF-539 CNS
SK-MEL-2 melanoma = test system: SK-MEL-2 melanoma
SK-MEL-5 melanoma = test system: SK-MEL-5 melanoma
SK-OV-3 ovarian = test system: SK-OV-3 ovarian
SN12C renal = test system: SN12C renal
SNB-19 CNS = test system: SNB-19 CNS
SNB-75 CNS = test system: SNB-75 CNS
SR leukemia = test system: SR leukemia
SW-620 colon = test system: SW-620 colon
T-47D breast = test system: T-47D breast
TK-10 renal = test system: TK-10 renal
U251 CNS = test system: U251 CNS
UO-31 renal = test system: UO-31 renal

Structure (SMILES): C=C1C(=O)O[C@H]2[C@H]1CC/C(CNC(=O)c1cc3ccccc3[nH]1)=C\CC[C@@]1(C)O[C@@H]21
- GI50 (786-0 renal): 1690 nM
- TGI (786-0 renal): 3430 nM
- GI50 (A498 renal): 3150 nM
- TGI (A498 renal): 6690 nM
- GI50 (A549 NSCLC): 4390 nM
- TGI (A549 NSCLC): 15700 nM
- GI50 (ACHN renal): 1260 nM
- TGI (ACHN renal): 3070 nM
- GI50 (BT-549 breast): 1690 nM
- TGI (BT-549 breast): 3340 nM
- GI50 (CAKI-1 renal): 1270 nM
- TGI (CAKI-1 renal): 4260 nM
- GI50 (CCRF-CEM leukemia): 375 nM
- TGI (CCRF-CEM leukemia): 1760 nM
- GI50 (COLO 205 colon): 1160 nM
- TGI (COLO 205 colon): 2600 nM
- GI50 (DU-145 prostate): 575 nM
- TGI (DU-145 prostate): 1870 nM
- GI50 (EKVX NSCLC): 2110 nM
- TGI (EKVX NSCLC): 8040 nM
- GI50 (HCC-2998 colon): 1850 nM
- TGI (HCC-2998 colon): 3380 nM
- GI50 (HCT-116 colon): 1000 nM
- TGI (HCT-116 colon): 2210 nM
- GI50 (HCT-15 colon): 439 nM
- TGI (HCT-15 colon): 1720 nM
- GI50 (HL-60(TB) leukemia): 2010 nM
- TGI (HL-60(TB) leukemia): 5800 nM
- GI50 (HOP-62 NSCLC): 1860 nM
- TGI (HOP-62 NSCLC): 4370 nM
- GI50 (HOP-92 NSCLC): 1570 nM
- TGI (HOP-92 NSCLC): 3460 nM
- GI50 (HS 578T breast): 6620 nM
- TGI (HS 578T breast): 38700 nM
- GI50 (HT29 colon): 1110 nM
- TGI (HT29 colon): 3090 nM
- GI50 (IGROV1 ovarian): 1320 nM
- TGI (IGROV1 ovarian): 5400 nM
- GI50 (K-562 leukemia): 642 nM
- TGI (K-562 leukemia): 4920 nM
- GI50 (KM12 colon): 2080 nM
- TGI (KM12 colon): 5000 nM
- GI50 (LOX IMVI melanoma): 580 nM
- TGI (LOX IMVI melanoma): 1990 nM
- GI50 (M14 melanoma): 1120 nM
- TGI (M14 melanoma): 2810 nM
- GI50 (MALME-3M melanoma): 1780 nM
- TGI (MALME-3M melanoma): 3600 nM
- GI50 (MDA-MB-231 breast): 1380 nM
- TGI (MDA-MB-231 breast): 3340 nM
- GI50 (MDA-MB-435): 1580 nM
- TGI (MDA-MB-435): 4630 nM
- GI50 (MOLT-4 leukemia): 1600 nM
- TGI (MOLT-4 leukemia): 4550 nM
- GI50 (NCI-H226 lung): 2580 nM
- TGI (NCI-H226 lung): 10700 nM
- GI50 (NCI-H23 lung): 1680 nM
- TGI (NCI-H23 lung): 4260 nM
- GI50 (NCI-H460 lung): 4090 nM
- TGI (NCI-H460 lung): 17300 nM
- GI50 (NCI-H522 lung): 1570 nM
- TGI (NCI-H522 lung): 3310 nM
- GI50 (NCI/ADR-RES ovarian): 3080 nM
- TGI (NCI/ADR-RES ovarian): 12300 nM
- GI50 (OVCAR-3 ovarian): 504 nM
- TGI (OVCAR-3 ovarian): 1690 nM
- GI50 (OVCAR-4 ovarian): 1730 nM
- TGI (OVCAR-4 ovarian): 5530 nM
- GI50 (OVCAR-5 ovarian): 2370 nM
- TGI (OVCAR-5 ovarian): 6260 nM
- GI50 (OVCAR-8 ovarian): 2080 nM
- TGI (OVCAR-8 ovarian): 5870 nM
- GI50 (PC-3 prostate): 2030 nM
- TGI (PC-3 prostate): 4780 nM
- GI50 (RPMI-8226 leukemia): 1020 nM
- TGI (RPMI-8226 leukemia): 3880 nM
- GI50 (RXF 393 renal): 1010 nM
- TGI (RXF 393 renal): 2520 nM
- GI50 (SF-268 CNS): 1600 nM
- TGI (SF-268 CNS): 3670 nM
- GI50 (SF-295 CNS): 6450 nM
- TGI (SF-295 CNS): 19500 nM
- GI50 (SF-539 CNS): 1610 nM
- TGI (SF-539 CNS): 3160 nM
- GI50 (SK-MEL-2 melanoma): 1880 nM
- TGI (SK-MEL-2 melanoma): 4290 nM
- GI50 (SK-MEL-5 melanoma): 1720 nM
- TGI (SK-MEL-5 melanoma): 3650 nM
- GI50 (SK-OV-3 ovarian): 11600 nM
- TGI (SK-OV-3 ovarian): 23800 nM
- GI50 (SN12C renal): 1790 nM
- TGI (SN12C renal): 4850 nM
- GI50 (SNB-19 CNS): 7730 nM
- TGI (SNB-19 CNS): 23000 nM
- GI50 (SNB-75 CNS): 6980 nM
- TGI (SNB-75 CNS): 21000 nM
- GI50 (SR leukemia): 319 nM
- TGI (SR leukemia): 3400 nM
- GI50 (SW-620 colon): 523 nM
- TGI (SW-620 colon): 2010 nM
- GI50 (T-47D breast): 1650 nM
- TGI (T-47D breast): 4800 nM
- GI50 (TK-10 renal): 1480 nM
- TGI (TK-10 renal): 3230 nM
- GI50 (U251 CNS): 1680 nM
- TGI (U251 CNS): 3260 nM
- GI50 (UO-31 renal): 1290 nM
- TGI (UO-31 renal): 2900 nM
